Laboratory results as given in a melting point compilation (Tetko et al.).

In the case of CC(C)CC1c2ccccc2-c2ccccc21, the melting point is reported as 45 °C.
Work on C1CCCCCCCC1 yielded a melting point of 11 °C.
Compound C1=CCC=C1 has a melting point of -85 °C.
Cc1oc(-c2ccccc2)nc1CN showed a melting point of 42 to 46 °C.
Work on CN1C(=O)CN(C(=O)OC(C)(C)C)[C@@H]1C(C)(C)C yielded a melting point of 66 to 70 °C.
Compound CC(C)C(=NO)C(C)C has a melting point of 34 °C.
With CC1CC(OC(=O)C(O)c2ccccc2)CC(C)(C)N1C (stereo unspecified) the melting point was 113 °C.
With CC(C)CCCCCCCO the melting point was 5 °C.
CC(C)CCSCCC(C)C showed a melting point of -74.6 °C.
For Cc1ccc([N+](=O)[O-])cc1S(=O)(=O)O, the melting point was 133 °C.
Work on CC(=O)Oc1cn(C(C)=O)c2ccc(Br)cc12 yielded a melting point of 124 to 128 °C.
Work on CCCCCCCCCCCCCCCCCC(=O)OCCCCCCCCCCCCCCCC yielded a melting point of 57 °C.
Compound CCOC(=O)C=Cc1c[nH]c2ccccc12 has a melting point of 120 °C.
For Cc1ccc(C)c(N2CCNCC2)c1, the melting point was 45 °C.
Work on NC1CCCCCCC1 yielded a melting point of -48 °C.
With c1ccc2c(c1)ccc1c3ccccc3sc21 the melting point was 189 °C.
With CC(C)S(=O)(=O)c1csc(C(=O)O)c1N the melting point was 158 °C.
Work on NC(=S)c1ccccn1 yielded a melting point of 136 °C.
For Cc1nc(-c2cccc(C(=O)O)c2)cs1, the melting point was 200 to 201 °C.
c1ccc(-c2nc3ccccc3o2)cc1 gave a melting point of 103 °C.
N#CCN1CCCCC1 showed a melting point of 25 °C.
In the case of CCC(=O)C1(c2cccc(O)c2)CCN(C)CC1, the melting point is reported as 156 °C.
For CCOC(=O)C1CCN(c2ncnc3ccsc23)CC1, the melting point was 64 to 66 °C.
Compound CC(=O)CCc1oc2ccc(C)cc2c1-c1ccc(C)o1 has a melting point of 76 °C.
For CC(C(=O)O)=C(C)c1cccc(C)c1, the melting point was 163 °C.
Work on C=Cc1ccccc1[N+](=O)[O-] yielded a melting point of 13 °C.
With CCOC(=O)c1csnn1 the melting point was 86 to 88 °C.
Oc1ccccc1S showed a melting point of 20 °C.
Work on Cc1sc(N)nc1-c1ccccc1 yielded a melting point of 110 °C.
Work on Nc1nc(-c2ccc(Br)cc2)cs1 yielded a melting point of 184 °C.
Work on COC(=O)CCC(C)C1CCC2C3CCC4CCCCC4(C)C3CC(=O)C12C (stereo unspecified) yielded a melting point of 109 °C.
With CC(=O)NCC(=O)O the melting point was 207 to 209 °C.
With C=C(C)C(=O)O the melting point was 16 °C.
Compound c1ccc(-n2ccnc2)cc1 has a melting point of 13 °C.
In the case of CC(C)(C)OC(=O)N1CCC(c2nc(C=O)cs2)CC1, the melting point is reported as 91 to 93 °C.
C/C=C/C1Nn2c(nnc2-c2ccccc2OC)S1 (stereo unspecified) gave a melting point of 124 to 126 °C.
CC(=O)C=CC1=C(C)CCCC1(C)C gave a melting point of -49 °C.
O=C=Nc1cccc(Cl)c1 showed a melting point of -4 °C.
In the case of CC(=O)c1cc2cc(Cl)cc(Cl)c2oc1=O, the melting point is reported as 172 to 174 °C.
In the case of Nc1ccc(C(F)(F)F)cc1, the melting point is reported as 38 °C.
Compound CCCCCCCCCCSCCCCCCCCCC has a melting point of 27 °C.
Work on O=S(=O)(Cl)c1cc2ccccc2s1 yielded a melting point of 75 to 76 °C.
With COC(=O)C(=Cc1ccc(O)cc1)C(=O)OC the melting point was 155 to 160 °C.
With Cc1cc(C(F)(C(F)(F)F)C(F)(F)F)ccc1NC(=O)c1cccc(I)c1C(=O)NC(C)(C)CS(C)(=O)=O the melting point was 218 °C.
CC(C(=O)O)c1ccc(C(=O)c2ccccc2)s1 (stereo unspecified) showed a melting point of 96 °C.
For COc1ccc(CCC(=O)O)cc1OC, the melting point was 98 °C.
Compound CC(=O)c1nn(-c2ccccc2)c2cc3c(cc12)c(C(C)=O)nn3-c1ccccc1 has a melting point of 310 to 312 °C.
With Nc1ccc2c(c1)S(=O)(=O)C=C2 the melting point was 150 °C.
In the case of CCOC(=O)c1cc2cccc(OC)c2o1, the melting point is reported as 85 to 90 °C.
For CCc1nc(C)c(C=O)[nH]1, the melting point was 104 to 105 °C.
N#C/C(=N\Nc1ccc(Cl)cc1)c1nc2ccccc2c(=O)[nH]1 gave a melting point of 253 °C.
For O=C(C1CCNCC1)N1CCCC1, the melting point was 45 to 47 °C.
CN(C)CCCNc1c2ccccc2nc2cccc([N+](=O)[O-])c12 gave a melting point of 134 °C.
For Cc1cc(C)c(CC(=O)c2oc3ccccc3c2NC(=O)Cc2ccccc2)c(C)c1, the melting point was 156 to 157 °C.
For CN(C)CCc1ccc(O)cc1, the melting point was 118 °C.
With O=C1NC(CCO)C(=O)NC1CCO (stereo unspecified) the melting point was 188 to 192 °C.
ClC=C(Cl)C(Cl)=CCl gave a melting point of -4 °C.
COC(=O)c1sc(C(C)(C)C)cc1N showed a melting point of 94 to 95 °C.
For FCCl, the melting point was -133 °C.
In the case of COc1ccc(-c2ocnc2C(=O)O)cc1, the melting point is reported as 147 to 151 °C.
For Cc1ccccc1C(C)(C)C, the melting point was -50 °C.
With NNC(=O)CCc1ccc(O)cc1 the melting point was 223 to 225 °C.
In the case of CC(=O)C1(O)C(O)CC2C3CCC4=CC(=O)CCC4(C)C3CCC21C (stereo unspecified), the melting point is reported as 225 °C.
NC(=O)c1c(Cl)cc(C(F)(F)F)cc1Cl showed a melting point of 166 to 169 °C.
N[C@H](C(=O)O)C1CCCCC1 gave a melting point of 256 °C.
O=[N+]([O-])c1ccc(C2Nn3c(nnc3-c3cccnc3)S2)cc1 (stereo unspecified) gave a melting point of 245 to 246 °C.
ON=C1CCCCCCC1 showed a melting point of 37 °C.
For COC(=O)Nc1nc2cc(C(=O)C3CC3)ccc2[nH]1, the melting point was 250 °C.
O=C1NN(c2ccccc2)C(=O)C1c1ccccc1 (stereo unspecified) gave a melting point of 233 °C.
O=S(=O)(c1ccc(O)cc1)c1ccc(O)cc1 showed a melting point of 248 °C.
For CC(C)C(OC(=O)c1cccnc1)c1ccc(Cl)cc1 (stereo unspecified), the melting point was 61 °C.
In the case of O=C(CBr)c1ccc2ccccc2c1, the melting point is reported as 82 to 85 °C.
O=C(O)c1cccc(-c2cc[nH]n2)c1 showed a melting point of 204 °C.
Compound Cc1c(-c2ccccc2)sc2ncnc(O)c12 has a melting point of 247 to 249 °C.
Compound N#Cc1sc2c(=O)c3ccccc3c(=O)c=2sc1C#N has a melting point of 225 °C.
For Cc1ccc(C(=O)C=Cc2ccc(-c3ccc([N+](=O)[O-])cc3)o2)o1, the melting point was 178 to 179 °C.
CCOC(=O)C(C#N)c1ccccc1[N+](=O)[O-] (stereo unspecified) gave a melting point of 60 °C.
With O=C1CC2CCC1C2 (stereo unspecified) the melting point was 95 °C.
For CCNC=C(C(=O)OCC)C(=O)c1cnc(Cl)c(F)c1, the melting point was 122 to 124 °C.
With N#Cc1ccc(N2CCNCC2)nc1 the melting point was 131 °C.
Work on O=C(CC(c1ccccc1)c1ccccc1)c1ccccc1 yielded a melting point of 96 °C.
In the case of COC(=O)c1ccc2cc(OC)ccc2c1, the melting point is reported as 130 °C.
O=C(Nc1ccccc1)C(Cl)(Cl)Cl showed a melting point of 96 °C.
Compound Cn1nc(CCl)cc1-c1ccccc1 has a melting point of 59 to 61 °C.
For COc1ccc(C(=O)CCC(=O)O)cc1F, the melting point was 171 °C.
For COCCc1ccc(O)cc1, the melting point was 44 °C.
O=C(C=Cc1ccc(Br)o1)c1ccco1 gave a melting point of 76 to 78 °C.
N#Cc1ccc(C2CCCc3cncn32)cc1 (stereo unspecified) showed a melting point of 117 °C.
With Cc1ccc([N+](=O)[O-])c(N)n1 the melting point was 146 to 150 °C.
Compound Clc1cccc2c1Oc1ccccc1O2 has a melting point of 104 °C.
In the case of O=C(NC(CC=Cc1ccccc1)C(=O)O)OCC1c2ccccc2-c2ccccc21 (stereo unspecified), the melting point is reported as 142 °C.
For CC(=O)NC(Cc1ccc(Br)cc1)C(=O)O (stereo unspecified), the melting point was 191 to 193 °C.
COCC(=O)c1ccccc1 showed a melting point of 8 °C.
With O=S(=O)(Cl)c1ccc(Br)c(Br)c1 the melting point was 34 °C.
With O=C(Nc1cccc2ccccc12)Nc1cccc2ccccc12 the melting point was 296 °C.
With N[C@@H](Cc1cc(I)c(O)c(I)c1)C(=O)O the melting point was 213 °C.
In the case of Cc1cc(=O)n2nc(C(F)(F)F)nc2[nH]1, the melting point is reported as 214 °C.
In the case of COc1cc(CCN(Cc2cccc(O)c2)C(=O)C(F)(F)F)ccc1O, the melting point is reported as 51 °C.
Work on CS(=O)(=O)OCCC(=O)N1CCN(C(=O)CCOS(C)(=O)=O)CC1 yielded a melting point of 175 °C.
For CN(C)C(=O)Nc1ccc(Oc2ccc(Cl)cc2)cc1, the melting point was 151 °C.
Work on O=C(Oc1cccc2c1CCC2=O)c1ccccc1 yielded a melting point of 78 to 80 °C.
With Cc1cc(CO)n[nH]1 the melting point was 78 to 80 °C.
In the case of Clc1ccc2c(c1)Oc1cc(Cl)c(Cl)cc1O2, the melting point is reported as 162 °C.
With CCCCCSc1nnc[nH]1 the melting point was 47 to 48 °C.
In the case of O=[N+]([O-])c1cc(C=NNc2ccccc2)ccc1C=NNc1ccccc1, the melting point is reported as 185 °C.
In the case of CC(C)(C)N(NC(=O)c1ccccc1)C(=O)c1cccc(F)c1, the melting point is reported as 176 °C.
C#CC1(O)CC[C@@]2(C)C(CC[C@@H]3[C@@H]2CC[C@@]2(C)[C@H]3CC[C@]2(O)C#C)C1 (stereo partly specified) showed a melting point of 147 °C.
In the case of C#CC1(O)C=CC(O)(C#C)C=C1 (stereo unspecified), the melting point is reported as 125 °C.
In the case of O=C(O)c1cccc(-c2ccccc2)c1, the melting point is reported as 167 °C.
For CC1CCC(C(C)C)C(OC(=O)C(c2ccccc2)c2ccccc2)C1 (stereo unspecified), the melting point was 53 °C.
Compound Cc1ccnc(N)c1[N+](=O)[O-] has a melting point of 136 to 141 °C.
c1cocn1 gave a melting point of -86 °C.
Work on CC(=NO)c1ccc(Cl)c(Cl)c1 yielded a melting point of 108 to 111 °C.
For CN(C)C(=O)COC(=O)c1ccccc1, the melting point was 81.5 °C.
CCCOc1ccc(C(N)=NO)cc1 showed a melting point of 105 to 106 °C.
In the case of Oc1ccc(C#Cc2ccc(F)cc2)cc1, the melting point is reported as 149 °C.
Cn1c(C(=O)O)ccc1S(N)(=O)=O showed a melting point of 210 to 212 °C.
Work on OC(CCCc1ccccc1)c1ccccc1 (stereo unspecified) yielded a melting point of 47 °C.
For Nc1snnc1-c1ccc(C(F)(F)F)cc1, the melting point was 125 to 128 °C.
Cc1noc2c1c(=O)n(-c1ccccc1)c1ccccc21 showed a melting point of 283 °C.
O=C(Nc1ccc(I)cc1)C(C(F)(F)F)C(F)(F)F gave a melting point of 235 to 237 °C.
CCC(C)Br (stereo unspecified) showed a melting point of -112 °C.
Cc1c(C(=O)O)[nH]c2ccccc12 gave a melting point of 162 to 163 °C.
Compound CC(C=CC=C(C)C=CC1=C(C)CCCC1(C)C)=CC=O has a melting point of 63 °C.
Work on CCOC(=O)c1cc(C(=O)OCC)[nH]n1 yielded a melting point of 51 to 55 °C.
With Nc1ccccc1Cn1cncn1 the melting point was 56 to 57 °C.
Compound CNc1ccc2cc3ccc4c(c3nc2c1CO)COCN4 has a melting point of 105 °C.
For Cc1ccccc1CS(=O)(=O)Cl, the melting point was 52 to 53 °C.
In the case of CC1C(=O)C23C4CC5C(C)(CO)CCCC56COC(CC1C2OC(C)(C)O4)C63 (stereo unspecified), the melting point is reported as 220 °C.
COC1=CC(c2ccccc2)c2ccccc21 (stereo unspecified) gave a melting point of 68 °C.
For N#Cc1cccnc1Cl, the melting point was 107 to 109 °C.
In the case of CNC(=O)ON=C(C)C(C)S(C)(=O)=O (stereo unspecified), the melting point is reported as 87 °C.
Nc1cccc(I)c1 gave a melting point of 33 °C.
Compound NC1CCC1 has a melting point of -4 °C.
Compound CCCCCCCC(=O)OCCCC has a melting point of -42.9 °C.
In the case of O=C1C=CC(=O)c2c(O)cccc21, the melting point is reported as 162 °C.
